We go through one compound from patent US20140287925A1, “SOLUTIONS OF CIPC AND OF A TERPENE OR OF A TERPENE OIL AND THEIR USES FOR THE ANTIGERMINATIVE TREATMENT OF BULBS OR TUBERS” (priority 2003, published 2014).

The structures appear in SMILES notation.

Data set [1] in a line: Solubility of CIPC (maximum concentration obtained in solvents). It is filed as physicochemical. Particulars: in terpenes and/or terpene oils, clear solutions, at room temperature or even as low as 0° C. The protocol: Moreover, CIPC is sparingly soluble in conventional solvents, and maximum CIPC concentrations of the order of 30% (weight/volume) are generally obtained. At best, concentrations of the order of about 54% at 180° C. have been obtained. This low solubility therefore implies the use of large quantities of solvent and/or of formulation in order to obtain the required quantities of active formula. Now, it is sought in general to limit the use of these solvents because of their own toxicity and/or of the danger involved in using them, in particular because of their low boiling points which cause high risks of inflammability.
It has now been discovered, and that is one of the subjects of the present invention, that terpenes and/or terpene oils have a high CIPC-dissolving power. In particular, the use of such terpenes and/or terpene oils makes it possible to obtain clear CIPC solutions and to reach CIPC concentrations greater than 50% by weight of CIPC relative to the total volume of the solution, at room temperature, or even temperatures as low as 0° C. Consequently, the formulations of the present invention make it possible to limit the quantity of formulated product to be used.

The conditions of data set [2]: cited from earlier work.

In the case of `CC(C)OC(=O)Nc1cccc(Cl)c1` [CIPC, isopropyl (3-chlorophenyl)carbamate], the CIPC concentration reached result in data set [1] is “greater than 50 % by weight of CIPC relative to the total volume of the solution”. Also, the “CIPC concentration obtained at best” value in data set [2] (conventional solvents, at 180° C.) is listed as “about 54%”. Also, the “maximum CIPC concentration” value in data set [2] (in conventional solvents) was ~30 % (weight/volume).
